Here are results for four molecules from patent US20040241754A1, “Modulating neuronal plasticity” (The Salk Institute for Biological Studies, priority 2003, published 2004).

“Also recorded” adds a separate entry of the source. Ends that are not written are not given here.

The target of experiment [1] is T1, GRIP PDZ 6 domain (Rattus norvegicus, UniProt P97879).
T1 construct: a GRIP fragment containing only the PDZ 6 domain; made in house; host or cells: E. coli BL21 (inferred from the PDZ4-6 construct)
T1 sequence (P97879 672-754 limits assumed): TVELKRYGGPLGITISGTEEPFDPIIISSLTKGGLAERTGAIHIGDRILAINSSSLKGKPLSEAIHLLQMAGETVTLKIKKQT
Kind of experiment: Competitive binding of 35S-EphB2 to His-GRIP-PDZ6. The source says:
Briefly, the carboxy terminal region of EphB2 corresponding to mouse EphB2 receptor (amino acid 930-993) was generated by PCR from mouse brain library and subcloned into pGEX2TK (Pharmacia). The GRIP(PDZ4-6) construct, corresponding to GRIP1 (amino acid 448-792) was obtained by PCR from an adult rat hippocampal library and subcloned into pRSET vector. E coli (strain BL21) were transformed with His-GRIP(PDZ4-6) and GST-EphB2 and protein production induced with IPTG. GST-EphB2 protein was purified on glutathionine beads and ^35S-EphB2 cleaved from GST with thrombin (1 U/μg). GRIP(PDZ4-6) protein was purified on Ni-NTA agarose, and eluted with imadazole. ^35S-EphB2 (50 nM) was incubated with (15 μg) of His-GRIP(PDZ4-6) protein in PBS buffer with protease inhibitors for 2 hrs at 22° C. in the absence or presence of peptides. ^35S-EphB2 binding to His-GRIP(PDZ4-6) was determined after a 45 min incubation with Ni-NTA agarose and vacuum filtration onto Whatman GFB filter circles (pretreated with 3% BSA). Filters were washed with ice-cold PBS buffer, allowed to equilibrate overnight in ECOLUME scintillation cocktail (ICN pharmaceuticals, Irvine Calif.), and specific counts measured in a scintillation counter. Non-specific binding was defined as the residual binding measured in the absence of His-GRIP(PDZ4-6). […]

For experiment [2], the system named is mossy fiber synapses of hippocampal CA3 pyramidal neurons. Description: Mossy fiber LTP, whole-cell patch clamp in hippocampal slices. The experiment is classed as cell-based, mice. How it is done:
The role of the GluR2 subunit in LTP at mossy fiber terminals was evaluated in whole cell patch clamp experiments using hippocampal CA3 pyramidal neurons. Briefly, transverse hippocampal slices (350 μm) were made from P12-18 mice (strain 129SvEv) as previously described (Contractor et al., Neuron 29, 209-16. (2001)). Slices were transferred to a recording chamber, and whole-cell patch clamp recordings made from visually identified pyramidal cells in the CA3 region of the hippocampus. The recording electrode (i.e., patch electrode) is filled with an “internal” solution described below. A seal between the glass of the electrode and the membrane of the cell is made. The seal is then “broken through” by pushing the electrode through the membrane to gain low resistance access to the cell interior and enable voltage clamping of the cell membrane. This also allows dialysis of the cell with test reagents such as peptides and antibodies. A stimulating electrode is attached to a current source and allows current to stimulate action potentials while a reference electrode is placed in the recording bath. The composition of the internal solution was: 95 mM CsF, 25 mM CsCl, 10 mM Cs-HEPES, 10 mM Cs-EGTA, 2 mM NaCl, 2 mM Mg-ATP, 10 mM QX-314, 5 mM TEA-Cl, 5 mM 4-AP, pH adjusted to 7.3 with CsOH.
Peptides were added directly to the internal solution on the day of the experiment from frozen stocks in protease inhibitors made up in phosphate buffered saline (PBS). To avoid leakage of peptides or antibodies into the extracellular space, pipette tips were filled with normal internal solution and then the pipette was backfilled with peptide/antibody containing internal fluid. The final concentration of peptides was 50 μM in all experiments. The final concentration of protease inhibitors were: bestatin 2 μg/ml, leupeptin 25 ng/ml, pepstatin 35 ng/ml, aprotinin 100 ng/ml.
In control experiments where peptides were not included, internal solutions were made up in exactly the same way with protease inhibitors in PBS but lacking any added peptide. Antibodies were made up in PBS stock and added directly to the internal solution at a final concentration of 20 μg/ml. The pH and osmolarity of all internal solutions were checked before use. Series resistances (Rs) were generally <10M and were continuously monitored throughout the duration of the experiment. […] Experiments using mutant mice were performed with heterozygous breedings blind to the genotype of the animal.
Mossy fiber EPSCs were evoked with a monopolar glass electrode positioned in the stratum lucidum. EPSCs were evaluated using a 40 ms interval between recordings. All recordings were made in the continuous presence of bicuculline (10 μM), picrotoxin (50 μM) and the NMDA receptor antagonist D-AP5 [D(-)-2-Amino-5-phosphonopentanoic acid; 50 μM]. The group II mGluR agonist, LCCG-1 (10 μM), which selectively depresses mossy fiber transmission, was applied at the end of each experiment. LTP was induced by tetanic stimulation comprising three 1 s stimulations (100 Hz) with a 10 s interval. Data are presented as mean±SEM. Parameters were compared using the Student's unpaired t-test where not specified, and the K-S test, p<0.05 was considered significant.
Cumulative probability is determined by ranking the EPSC data set from the highest to the lowest value from 20 to 30 minutes post tetanization. Each point is graphed with its corresponding percentile. […] The lowest LTP value was about 40% signified by the lowest point on the 1 st graph (open circles) and the largest LTP was about 160%.
(In general: The patch-clamp technique gives a direct electrical read-out from membranes.)

Experiment [3] concerns the target T2, GRIP PDZ4-6 (Rattus norvegicus, UniProt P97879).
T2 construct: corresponding to GRIP1 (amino acid 448-792); made in house; host or cells: E. coli BL21
T2 sequence (P97879 448-792): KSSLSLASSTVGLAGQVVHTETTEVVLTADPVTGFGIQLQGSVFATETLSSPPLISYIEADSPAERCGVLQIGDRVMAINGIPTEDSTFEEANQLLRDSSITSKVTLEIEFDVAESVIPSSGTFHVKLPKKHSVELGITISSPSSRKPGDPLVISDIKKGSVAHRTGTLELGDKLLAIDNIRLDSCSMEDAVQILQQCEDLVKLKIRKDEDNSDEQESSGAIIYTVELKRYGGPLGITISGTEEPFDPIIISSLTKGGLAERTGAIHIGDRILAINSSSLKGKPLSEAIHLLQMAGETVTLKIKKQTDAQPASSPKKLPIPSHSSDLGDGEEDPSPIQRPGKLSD
Kind of experiment: Competitive binding of 35S-EphB2 to His-GRIP-PDZ4-6. Conditions: 35S-EphB2 50 nM; fitted to the Hill equation; read-out: Ki, displacement of 35S-EphB2 binding to His-GRIP-PDZ 4-6. On the procedure: A competitive binding assay was prepared to determine if the LTP inhibitory effects of the GluR2ct peptide were mediated through disruption of binding between Eph receptors and PDZ domain 6 of GRIP (Torres et al., Neuron 21, 1453-63. (1998)) as opposed to disruption of binding between the GluR2 subunit and the GluR2-binding PDZ 4 and 5 domains of GRIP (Dong et al., Nature 386, 279-84. (1997)). For this purpose, a binding assay was established between GRIP PDZ domain fragments (His-GRIP-PDZ4-6) and an EphB2 carboxy terminal fusion protein labeled with ^35S-methionine (^35S-EphB2).
Briefly, the carboxy terminal region of EphB2 corresponding to mouse EphB2 receptor (amino acid 930-993) was generated by PCR from mouse brain library and subcloned into pGEX2TK (Pharmacia). The GRIP(PDZ4-6) construct, corresponding to GRIP1 (amino acid 448-792) was obtained by PCR from an adult rat hippocampal library and subcloned into pRSET vector. E coli (strain BL21) were transformed with His-GRIP(PDZ4-6) and GST-EphB2 and protein production induced with IPTG. GST-EphB2 protein was purified on glutathionine beads and ^35S-EphB2 cleaved from GST with thrombin (1 U/μg). GRIP(PDZ4-6) protein was purified on Ni-NTA agarose, and eluted with imadazole. ^35S-EphB2 (50 nM) was incubated with (15 μg) of His-GRIP(PDZ4-6) protein in PBS buffer with protease inhibitors for 2 hrs at 22° C. in the absence or presence of peptides. ^35S-EphB2 binding to His-GRIP(PDZ4-6) was determined after a 45 min incubation with Ni-NTA agarose and vacuum filtration onto Whatman GFB filter circles (pretreated with 3% BSA). Filters were washed with ice-cold PBS buffer, allowed to equilibrate overnight in ECOLUME scintillation cocktail (ICN pharmaceuticals, Irvine Calif.), and specific counts measured in a scintillation counter. Non-specific binding was defined as the residual binding measured in the absence of His-GRIP(PDZ4-6).

For experiment [4], the target named is EphB1. The following applies: read-out: Kd for binding to EphB1; cited from earlier work.
Experiment [5] has as its target EphA4 (Homo sapiens, UniProt P54764). Conditions: read-out: Kd for binding to EphA4; cited from earlier work.
For experiment [6], the target named is T3, EphA8 (Mus musculus, UniProt O09127).
T3 sequence (O09127 27-1004): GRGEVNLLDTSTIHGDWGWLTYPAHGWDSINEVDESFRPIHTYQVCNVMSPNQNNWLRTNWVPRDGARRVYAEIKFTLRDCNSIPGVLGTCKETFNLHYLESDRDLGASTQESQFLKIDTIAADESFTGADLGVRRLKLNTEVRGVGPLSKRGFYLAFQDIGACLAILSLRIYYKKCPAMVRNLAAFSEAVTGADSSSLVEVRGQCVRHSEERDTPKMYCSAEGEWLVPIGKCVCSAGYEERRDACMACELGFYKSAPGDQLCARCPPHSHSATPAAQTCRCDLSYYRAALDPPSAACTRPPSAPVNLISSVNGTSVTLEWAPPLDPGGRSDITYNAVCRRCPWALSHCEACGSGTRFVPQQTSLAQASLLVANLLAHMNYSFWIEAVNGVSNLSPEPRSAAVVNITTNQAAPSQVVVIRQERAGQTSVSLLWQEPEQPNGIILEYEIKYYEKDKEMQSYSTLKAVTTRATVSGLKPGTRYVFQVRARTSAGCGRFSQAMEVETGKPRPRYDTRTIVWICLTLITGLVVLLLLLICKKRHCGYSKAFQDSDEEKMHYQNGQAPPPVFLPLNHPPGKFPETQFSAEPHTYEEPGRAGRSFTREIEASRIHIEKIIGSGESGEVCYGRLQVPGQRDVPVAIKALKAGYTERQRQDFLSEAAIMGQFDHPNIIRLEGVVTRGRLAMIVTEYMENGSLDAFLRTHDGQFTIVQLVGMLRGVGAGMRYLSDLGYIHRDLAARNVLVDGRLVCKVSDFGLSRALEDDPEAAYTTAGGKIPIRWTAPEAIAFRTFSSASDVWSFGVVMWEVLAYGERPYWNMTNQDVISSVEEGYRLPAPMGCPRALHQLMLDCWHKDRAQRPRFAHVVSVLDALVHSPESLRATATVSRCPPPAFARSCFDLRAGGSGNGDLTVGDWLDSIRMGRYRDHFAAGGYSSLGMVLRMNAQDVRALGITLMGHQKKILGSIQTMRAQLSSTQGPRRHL
The following applies: read-out: Kd for binding to EphA8; cited from earlier work.

Experiment [7] addresses EphA3. The following applies: read-out: Kd for binding to EphA3; cited from earlier work.
The mark [8] stands for this setting: peptide 50 μM in patch electrode, 40 ms interval.

Chain of EphA4 (P54764 20-986, species assumed): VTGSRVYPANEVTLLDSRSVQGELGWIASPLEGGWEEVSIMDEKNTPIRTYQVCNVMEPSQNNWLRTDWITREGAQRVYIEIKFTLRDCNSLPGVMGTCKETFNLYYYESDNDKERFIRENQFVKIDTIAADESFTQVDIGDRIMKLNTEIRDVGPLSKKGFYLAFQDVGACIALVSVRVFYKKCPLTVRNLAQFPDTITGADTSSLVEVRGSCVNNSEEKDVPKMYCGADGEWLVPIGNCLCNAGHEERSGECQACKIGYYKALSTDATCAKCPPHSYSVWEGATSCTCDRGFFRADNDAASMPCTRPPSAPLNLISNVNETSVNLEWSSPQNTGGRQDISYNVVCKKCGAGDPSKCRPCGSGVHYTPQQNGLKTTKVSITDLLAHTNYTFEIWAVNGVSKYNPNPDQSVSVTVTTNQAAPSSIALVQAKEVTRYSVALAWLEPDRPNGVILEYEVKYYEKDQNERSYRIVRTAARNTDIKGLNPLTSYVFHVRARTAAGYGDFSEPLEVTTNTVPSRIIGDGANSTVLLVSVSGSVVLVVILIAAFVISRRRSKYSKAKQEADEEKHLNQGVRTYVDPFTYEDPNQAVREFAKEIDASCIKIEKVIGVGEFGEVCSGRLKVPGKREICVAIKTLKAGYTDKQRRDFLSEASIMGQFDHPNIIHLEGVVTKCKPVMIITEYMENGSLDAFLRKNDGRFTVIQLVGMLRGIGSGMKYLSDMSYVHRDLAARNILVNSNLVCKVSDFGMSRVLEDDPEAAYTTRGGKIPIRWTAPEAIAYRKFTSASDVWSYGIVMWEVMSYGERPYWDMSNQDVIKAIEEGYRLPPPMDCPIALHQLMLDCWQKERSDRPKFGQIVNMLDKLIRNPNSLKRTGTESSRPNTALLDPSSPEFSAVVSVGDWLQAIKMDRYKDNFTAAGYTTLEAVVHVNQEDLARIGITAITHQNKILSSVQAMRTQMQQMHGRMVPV

Take “NVYGIESVKI [GluR2ct, Asn-Val-Tyr-Gly-Ile-Glu-Ser-Val-Lys-Ile]”: the “displacement of EphB2 from / binding to GRIP PDZ domain 6” value in experiment [1] is listed as “binds directly to PDZ domain 6 of GRIP; also recorded: can displace EphB2”. In addition, the Ki in experiment [1] (read-out: Ki, displacement of 35S-EphB2 binding to His-GRIP-PDZ6) is 155 nM. Moreover, in experiment [2] (peptide 50 μM in patch electrode (postsynaptic), 25 to 30 minutes after tetanic stimulation), the “LTP (potentiation of the EPSC after tetanic stimulation)” value came out at 140±11%. In addition, in experiment [2] (setting [8]), the “LTP PPR (paired pulse ratio after LTP induction)” value is 2.5±0.12 and the “control PPR (paired pulse ratio before LTP induction)” value turned out to be 2.8±0.14. Further, the “PTP (post-tetanic potentiation)” value in experiment [2] (peptide 50 μM in patch electrode, immediately following tetanic stimulation) is reported as 510±67%. In experiment [2] (peptide in patch electrode), the “effect on basal synaptic transmission / basal EPSC amplitudes” value is “small effect on basal synaptic transmission in some neurons” and the “paired pulse ratio after LTP induction versus pretetanic” value is given as “no significant difference after induction of LTP”. Moreover, the “effect on tetanus induced LTP” value in experiment [2] (peptide in patch electrode (postsynaptic)) is “little potentiation was observed; also recorded: significantly less potentiation; also recorded: inhibit mossy fiber hippocampal CA3 neuronal LTP”. Also, the Ki in experiment [3] was 106 nM.

B1: ephrin-A4: a 201 amino acid polypeptide; ephrin ligand (protein, UniProt P52798 26-170, looked up)
Ephrin-A4: LRHVVYWNSSNPRLLRGDAVVELGLNDYLDIVCPHYEGPGPPEGPETFALYMVDWPGYESCQAEGPRAYKRWVCSLPFGHVQFSEKIQRFTPFSLGFEFLPGETYYYISVPTPESSGQCLRLQVSVCCKERKSESAHPVGSPGES
Take B1: the Kd in experiment [4] was 20 nM; in experiment [5], 5 nM.

B2: ephrin-A2: a 213 amino acid protein; ephrin ligand (protein, UniProt O43921 1-213, looked up)
chain: MAPAQRPLLPLLLLLLPLPPPPFARAEDAARANSDRYAVYWNRSNPRFHAGAGDDGGGYTVEVSINDYLDIYCPHYGAPLPPAERMEHYVLYMVNGEGHASCDHRQRGFKRWECNRPAAPGGPLKFSEKFQLFTPFSLGFEFRPGHEYYYISATPPNAVDRPCLRLKVYVRPTNETLYEAPEPIFTSNNSCSSPGGCRLFLSTIPVLWTLLGS
modifications: full-length
notes: a 213 amino acid protein; ephrin ligand
With B2, the Kd was 1.3 nM in experiment [6], 1 nM in experiment [7] and 10 nM in experiment [5].

B3: ephrin-B1: a 45 kDa, 346 amino acid glycosylated polypeptide; ephrin ligand (protein, UniProt P98172 1-346, looked up)
chain: MARPGQRWLGKWLVAMVVWALCRLATPLAKNLEPVSWSSLNPKFLSGKGLVIYPKIGDKLDIICPRAEAGRPYEYYKLYLVRPEQAAACSTVLDPNVLVTCNRPEQEIRFTIKFQEFSPNYMGLEFKKHHDYYITSTSNGSLEGLENREGGVCRTRTMKIIMKVGQDPNAVTPEQLTTSRPSKEADNTVKMATQAPGSRGSLGDSDGKHETVNQEEKSGPGASGGSSGDPDGFFNSKVALFAAVGAGCVIFLLIIIFLTVLLLKLRKRHRKHTQQRAAALSLSTLASPKGGSGTAGTEPSDIIIPLRTTENNYCPHYEKVSGDYGHPVYIVQEMPPQSPANIYYKV
modifications: full-length
notes: a 45 kDa, 346 amino acid glycosylated polypeptide; ephrin ligand
Regarding B3, the Kd in experiment [4] is 0.925 nM; in experiment [7] it was 350 nM.

What is called Ki is a dissociation constant, usually derived from enzyme kinetics or from competition with a known ligand. By Kd is commonly meant a measure of binding affinity in units of concentration.
